In brackets after ≈: the same amount, converted by molar mass.
Experiments:
Staphylococcus aureus [1] = assay: Antibacterial activity against methicillin-resistant Staphylococcus aureus USA300 assessed as bacterial growth inhibition; assay type: functional
Staphylococcus aureus [2] = assay: Antibacterial activity against methicillin-resistant Staphylococcus aureus HS-663 assessed as bacterial growth inhibition; assay type: functional
Staphylococcus aureus [3] = assay: Antibacterial activity against vancomycin-intermediate Staphylococcus aureus Mu50 assessed as bacterial growth inhibition; assay type: functional
Staphylococcus aureus [4] = assay: Antibacterial activity against methicillin-susceptible Staphylococcus aureus Newman assessed as bacterial growth inhibition; assay type: functional
Escherichia coli = assay: Antibacterial activity against Escherichia coli AB1157 assessed as bacterial growth inhibition; assay type: functional
Acinetobacter baumannii = assay: Antibacterial activity against Acinetobacter baumannii assessed as bacterial growth inhibition; assay type: functional
Enterococcus faecium [5] = assay: Antibacterial activity against vancomycin resistant Enterococcus faecium Van A HS-0649 assessed as inhibition of bacterial growth; assay type: functional
Enterococcus faecium [6] = assay: Antibacterial activity against vancomycin resistant Enterococcus faecium Van A HS-06188 assessed as inhibition of bacterial growth; assay type: functional
Enterococcus faecium [7] = assay: Antibacterial activity against vancomycin resistant Enterococcus faecium Van M HS-0847 assessed as inhibition of bacterial growth; assay type: functional
Enterococcus faecium [8] = assay: Antibacterial activity against vancomycin resistant Enterococcus faecium Van M HS-08267 assessed as inhibition of bacterial growth; assay type: functional
Enterococcus faecium [9] = assay: Antibacterial activity against vancomycin resistant Enterococcus faecium Van B V(R) assessed as inhibition of bacterial growth; assay type: functional
Enterococcus faecium [10] = assay: Potency index, ratio of Vancomycin MIC to test compound MIC for antibacterial activity against vancomycin resistant Enterococcus faecium Van A HS-06188 assessed as inhibition of bacterial growth; assay type: functional
Enterococcus faecium [11] = assay: Potency index, ratio of Vancomycin MIC to test compound MIC for antibacterial activity against vancomycin resistant Enterococcus faecium Van M HS-0847 assessed as inhibition of bacterial growth; assay type: functional
Enterococcus faecium [12] = assay: Potency index, ratio of Vancomycin MIC to test compound MIC for antibacterial activity against vancomycin resistant Enterococcus faecium Van M HS-08267 assessed as inhibition of bacterial growth; assay type: functional
Enterococcus faecium [13] = assay: Potency index, ratio of Vancomycin MIC to test compound MIC for antibacterial activity against vancomycin resistant Enterococcus faecium Van B V(R) assessed as inhibition of bacterial growth; assay type: functional
L02 = assay: Cytotoxicity against human L02 cells assessed as reduction in cell viability >= 12.5 uM; assay type: cell-based

| Structure (SMILES) | MIC (Staphylococcus aureus [1]) | MIC (Staphylococcus aureus [2]) | MIC (Staphylococcus aureus [3]) | MIC (Staphylococcus aureus [4]) | MIC (Escherichia coli) | MIC (Acinetobacter baumannii) | MIC (Enterococcus faecium [5]) | MIC (Enterococcus faecium [6]) | MIC (Enterococcus faecium [7]) | MIC (Enterococcus faecium [8]) | MIC (Enterococcus faecium [9]) | Ratio (Enterococcus faecium [10]) | Ratio (Enterococcus faecium [11]) | Ratio (Enterococcus faecium [12]) | Ratio (Enterococcus faecium [13]) | Activity (L02) |
| --- | --- | --- | --- | --- | --- | --- | --- | --- | --- | --- | --- | --- | --- | --- | --- | --- |
| CN[C@H](CC(C)C)C(=O)N[C@H]1C(=O)N[C@@H](CC(N)=O)C(=O)N[C@H]2C(=O)N[C@H]3C(=O)N[C@H](C(=O)N[C@H](C(=O)N/N=C/c4ccc(-c5ccc(C(F)(F)F)cc5)cc4)c4cc(O)cc(O)c4-c4cc3ccc4O)[C@H](O)c3ccc(c(Cl)c3)Oc3cc2cc(c3O[C@@H]2O[C@H](CO)[C@@H](O)[C@H](O)[C@H]2O[C@H]2C[C@](C)(N)[C@H](O)[C@H](C)O2)Oc2ccc(cc2Cl)[C@H]1O | 0.5 µg/mL (≈ 0.295 µM) | 0.0625 µg/mL (≈ 0.0369 µM) | 2 µg/mL (≈ 1.18 µM) | 1 µg/mL (≈ 0.59 µM) | > 128 µg/mL | > 128 µg/mL | 4 µg/mL (≈ 2.36 µM) | 4 µg/mL (≈ 2.36 µM) | 4 µg/mL (≈ 2.36 µM) | 2 µg/mL (≈ 1.18 µM) | 1 µg/mL (≈ 0.59 µM) | 8 | 8 | 8 | 8 | – |
| CN[C@H](CC(C)C)C(=O)N[C@H]1C(=O)N[C@@H](CC(N)=O)C(=O)N[C@H]2C(=O)N[C@H]3C(=O)N[C@H](C(=O)N[C@H](C(=O)N[C@@H](CS)C(=O)N[C@@H](CCCNC(=N)N)C(=O)N[C@@H](CCCCN)C(=O)N[C@H](C(=O)N[C@@H](CCCNC(=N)N)C(=O)NCC(=O)N4CCC[C@H]4C(=O)N4CCC[C@H]4C(=O)O)C(C)C)c4cc(O)cc(O)c4-c4cc3ccc4O)[C@H](O)c3ccc(c(Cl)c3)Oc3cc2cc(c3O[C@@H]2O[C@H](CO)[C@@H](O)[C@H](O)[C@H]2O[C@H]2C[C@](C)(N)[C@H](O)[C@H](C)O2)Oc2ccc(cc2Cl)[C@H]1O | 16 µg/mL (≈ 6.83 µM) | 16 µg/mL (≈ 6.83 µM) | 64 µg/mL (≈ 27.3 µM) | 32 µg/mL (≈ 13.7 µM) | > 128 µg/mL | > 128 µg/mL | – | 16 µg/mL (≈ 6.83 µM) | 32 µg/mL (≈ 13.7 µM) | 32 µg/mL (≈ 13.7 µM) | 16 µg/mL (≈ 6.83 µM) | – | – | – | – | – |
| CN[C@H](CC(C)C)C(=O)N[C@H]1C(=O)N[C@@H](CC(N)=O)C(=O)N[C@H]2C(=O)N[C@H]3C(=O)N[C@H](C(=O)N[C@H](C(=O)O)c4cc(O)cc(O)c4-c4cc3ccc4O)[C@H](O)c3ccc(c(Cl)c3)Oc3cc2cc(c3O[C@@H]2O[C@H](CO)[C@@H](O)[C@H](O)[C@H]2O[C@H]2C[C@](C)(N)[C@H](O)[C@H](C)O2)Oc2ccc(cc2Cl)[C@H]1O [VANCOMYCIN] | – | 0.25 µg/mL (≈ 0.173 µM) | 8 µg/mL (≈ 5.52 µM) | – | – | – | – | – | 64 µg/mL (≈ 44.2 µM) | – | – | – | – | – | – | – |
| CN[C@H](CC(C)C)C(=O)N[C@H]1C(=O)N[C@@H](CC(N)=O)C(=O)N[C@H]2C(=O)N[C@H]3C(=O)N[C@H](C(=O)N[C@H](C(=O)NNCc4ccccc4)c4cc(O)cc(O)c4-c4cc3ccc4O)[C@H](O)c3ccc(c(Cl)c3)Oc3cc2cc(c3O[C@@H]2O[C@H](CO)[C@@H](O)[C@H](O)[C@H]2O[C@H]2C[C@](C)(N)[C@H](O)[C@H](C)O2)Oc2ccc(cc2Cl)[C@H]1O | 1 µg/mL (≈ 0.644 µM) | 0.25 µg/mL (≈ 0.161 µM) | 4 µg/mL (≈ 2.57 µM) | 1 µg/mL (≈ 0.644 µM) | > 128 µg/mL | > 128 µg/mL | 128 µg/mL (≈ 82.4 µM) | 64 µg/mL (≈ 41.2 µM) | 64 µg/mL (≈ 41.2 µM) | 32 µg/mL (≈ 20.6 µM) | 128 µg/mL (≈ 82.4 µM) | – | – | – | – | – |
| CN[C@H](CC(C)C)C(=O)N[C@H]1C(=O)N[C@@H](CC(N)=O)C(=O)N[C@H]2C(=O)N[C@H]3C(=O)N[C@H](C(=O)N[C@H](C(=O)NNCc4ccc(-c5ccc(C(F)(F)F)cc5)cc4)c4cc(O)cc(O)c4-c4cc3ccc4O)[C@H](O)c3ccc(c(Cl)c3)Oc3cc2cc(c3O[C@@H]2O[C@H](CO)[C@@H](O)[C@H](O)[C@H]2O[C@H]2C[C@](C)(N)[C@H](O)[C@H](C)O2)Oc2ccc(cc2Cl)[C@H]1O | 0.5 µg/mL (≈ 0.295 µM) | 0.0625 µg/mL (≈ 0.0368 µM) | 2 µg/mL (≈ 1.18 µM) | 1 µg/mL (≈ 0.589 µM) | > 128 µg/mL | 64 µg/mL (≈ 37.7 µM) | 8 µg/mL (≈ 4.71 µM) | 8 µg/mL (≈ 4.71 µM) | 4 µg/mL (≈ 2.36 µM) | 2 µg/mL (≈ 1.18 µM) | 4 µg/mL (≈ 2.36 µM) | 8 | 8 | 8 | 8 | – |
| CC[C@H](C)[C@H](NC(=O)[C@H](CCCCN)NC(=O)[C@@H](NC(=O)[C@H](CC(N)=O)NC(=O)[C@H](CS)NC(=O)[C@H]1NC(=O)[C@H]2NC(=O)[C@H](NC(=O)[C@@H]3NC(=O)[C@H](CC(N)=O)NC(=O)[C@H](NC(=O)[C@@H](CC(C)C)NC)[C@H](O)c4ccc(c(Cl)c4)Oc4cc3cc(c4O[C@@H]3O[C@H](CO)[C@@H](O)[C@H](O)[C@H]3O[C@H]3C[C@](C)(N)[C@H](O)[C@H](C)O3)Oc3ccc(cc3Cl)[C@H]2O)c2ccc(O)c(c2)-c2c(O)cc(O)cc21)[C@@H](C)CC)C(=O)N[C@@H](CO)C(=O)NCC(=O)N[C@@H](CCCCN)C(=O)N[C@@H](Cc1c[nH]c2ccccc12)C(=O)N[C@@H](CCCCN)C(=O)N[C@@H](C)C(=O)N[C@@H](CCC(N)=O)C(=O)N[C@@H](CCCCN)C(=O)N[C@@H](CCCNC(=N)N)C(=O)N[C@@H](Cc1ccccc1)C(=O)N[C@@H](CC(C)C)C(=O)O | 32 µg/mL (≈ 9.55 µM) | 16 µg/mL (≈ 4.77 µM) | 32 µg/mL (≈ 9.55 µM) | 32 µg/mL (≈ 9.55 µM) | > 128 µg/mL | > 128 µg/mL | – | 64 µg/mL (≈ 19.1 µM) | 32 µg/mL (≈ 9.55 µM) | 32 µg/mL (≈ 9.55 µM) | 32 µg/mL (≈ 9.55 µM) | – | – | – | – | – |
| CN[C@H](CC(C)C)C(=O)N[C@H]1C(=O)N[C@@H](CC(N)=O)C(=O)N[C@H]2C(=O)N[C@H]3C(=O)N[C@H](C(=O)N[C@H](C(=O)N[C@@H](CCCNC(=N)N)C(=O)O)c4cc(O)cc(O)c4-c4cc3ccc4O)[C@H](O)c3ccc(c(Cl)c3)Oc3cc2cc(c3O[C@@H]2O[C@H](CO)[C@@H](O)[C@H](O)[C@H]2O[C@H]2C[C@](C)(N)[C@H](O)[C@H](C)O2)Oc2ccc(cc2Cl)[C@H]1O | 4 µg/mL (≈ 2.49 µM) | 0.5 µg/mL (≈ 0.311 µM) | 64 µg/mL (≈ 39.9 µM) | 8 µg/mL (≈ 4.98 µM) | > 128 µg/mL | > 128 µg/mL | > 128 µg/mL | 128 µg/mL (≈ 79.7 µM) | 128 µg/mL (≈ 79.7 µM) | 128 µg/mL (≈ 79.7 µM) | 64 µg/mL (≈ 39.9 µM) | – | – | – | – | Toxic |
| CN[C@H](CC(C)C)C(=O)N[C@H]1C(=O)N[C@@H](CC(N)=O)C(=O)N[C@H]2C(=O)N[C@H]3C(=O)N[C@H](C(=O)N[C@H](C(=O)N[C@@H](CCCNC(=N)N)C(N)=O)c4cc(O)cc(O)c4-c4cc3ccc4O)[C@H](O)c3ccc(c(Cl)c3)Oc3cc2cc(c3O[C@@H]2O[C@H](CO)[C@@H](O)[C@H](O)[C@H]2O[C@H]2C[C@](C)(N)[C@H](O)[C@H](C)O2)Oc2ccc(cc2Cl)[C@H]1O | – | 0.25 µg/mL (≈ 0.156 µM) | 2 µg/mL (≈ 1.25 µM) | 2 µg/mL (≈ 1.25 µM) | 32 µg/mL (≈ 19.9 µM) | > 128 µg/mL | 64 µg/mL (≈ 39.9 µM) | 64 µg/mL (≈ 39.9 µM) | 64 µg/mL (≈ 39.9 µM) | 64 µg/mL (≈ 39.9 µM) | 64 µg/mL (≈ 39.9 µM) | – | – | – | – | Toxic |
| CN[C@H](CC(C)C)C(=O)N[C@H]1C(=O)N[C@@H](CC(N)=O)C(=O)N[C@H]2C(=O)N[C@H]3C(=O)N[C@H](C(=O)N[C@H](C(=O)N/N=C/c4ccccc4)c4cc(O)cc(O)c4-c4cc3ccc4O)[C@H](O)c3ccc(c(Cl)c3)Oc3cc2cc(c3O[C@@H]2O[C@H](CO)[C@@H](O)[C@H](O)[C@H]2O[C@H]2C[C@](C)(N)[C@H](O)[C@H](C)O2)Oc2ccc(cc2Cl)[C@H]1O | 2 µg/mL (≈ 1.29 µM) | 0.5 µg/mL (≈ 0.322 µM) | 16 µg/mL (≈ 10.3 µM) | 2 µg/mL (≈ 1.29 µM) | > 128 µg/mL | > 128 µg/mL | 128 µg/mL (≈ 82.5 µM) | 128 µg/mL (≈ 82.5 µM) | 64 µg/mL (≈ 41.3 µM) | 64 µg/mL (≈ 41.3 µM) | 128 µg/mL (≈ 82.5 µM) | – | – | – | – | Toxic |

Reference: ChEMBL document CHEMBL4808179 (Bioorg Med Chem Lett, 2021)
